From patent publication US9505726B2, “Substituted biphenyl amides as P2X3 and P2X2/3 antagonists” (Roche Palo Alto LLC, priority 2009, dated 2016)

molecular target: T1, rat P2X3 receptor (Rattus norvegicus, UniProt P49654); test: P2X3 FLIPR (Fluorometric Imaging Plate Reader) assay; format: cell-based; details: CHO-K1 cells transfected with cloned rat P2X3; agonist α,β-meATP 1 μM; Fluo-3 AM calcium fluorescence
T1 construct: expressed in transfected cells; host or cells: CHO-K1
T1 sequence (P49654 1-397): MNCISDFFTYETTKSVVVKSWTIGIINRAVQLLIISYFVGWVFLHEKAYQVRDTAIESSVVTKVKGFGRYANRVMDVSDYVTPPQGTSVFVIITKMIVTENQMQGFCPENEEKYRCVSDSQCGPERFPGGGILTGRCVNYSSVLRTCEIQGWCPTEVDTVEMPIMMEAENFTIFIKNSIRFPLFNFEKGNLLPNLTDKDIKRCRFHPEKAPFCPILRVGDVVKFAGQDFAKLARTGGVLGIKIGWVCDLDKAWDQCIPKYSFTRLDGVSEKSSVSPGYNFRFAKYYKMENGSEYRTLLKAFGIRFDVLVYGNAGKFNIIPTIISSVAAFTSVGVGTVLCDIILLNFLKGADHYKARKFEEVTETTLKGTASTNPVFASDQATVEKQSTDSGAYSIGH
Protocol: CHO-K1 cells were transfected with cloned rat P2X3 or human P2X2/3 receptor subunits and passaged in flasks. 18-24 hours before the FLIPR experiment, cells were released from their flasks, centrifuged, and resuspended in nutrient medium at 2.5×10^5 cells/ml. The cells were aliquoted into black-walled 96-well plates at a density of 50,000 cells/well and incubated overnight in 5% CO2 at 37° C. On the day of the experiment, cells were washed in FLIPR buffer (calcium- and magnesium-free Hank's balanced salt solution, 10 mM HEPES, 2 mM CaCl2, 2.5 mM probenecid; FB). Each well received 100 μl FB and 100 μl of the fluorescent dye Fluo-3 AM [2 μM final conc.]. After a 1 hour dye loading incubation at 37° C., the cells were washed 4 times with FB, and a final 75 μl/well FB was left in each well.
Test compounds (dissolved in DMSO at 10 mM and serially diluted with FB) or vehicle were added to each well (25 μl of a 4× solution) and allowed to equilibrate for 20 minutes at room temperature. The plates were then placed in the FLIPR and a baseline fluorescence measurement (excitation at 488 nm and emission at 510-570 nm) was obtained for 10 seconds before a 100 μl/well agonist or vehicle addition. The agonist was a 2X solution of α,β-meATP producing a final concentration of 1 μM (P2X3) or 5 μM (P2X2/3). Fluorescence was measured for an additional 2 minutes at 1 second intervals after agonist addition. A final addition of ionomycin (5 μM, final concentration) was made to each well of the FLIPR test plate to establish cell viability and maximum fluorescence of dye-bound cytosolic calcium. Peak fluorescence in response to the addition of α,β-meATP (in the absence and presence of test compounds) was measured and inhibition curves generated using nonlinear regression. PPADS, a standard P2X antagonist, was used as a positive control.

P2X3 (pIC50 values for the P2X3 receptor) | SMILES
5.35 | COCC(C)NC(=O)c1cc(NC(=O)c2sccc2C)cc(-c2ccc(C)cc2)c1 (stereo not shown) [Compound 14, 3-Methyl-thiophene-2-carboxylic acid [5-(2-methoxy-1-methyl-ethylcarbamoyl)-4′-methyl-biphenyl-3-yl]-amide]
8.14 | Cc1ccc(-c2cc(C(=O)NCc3cnccn3)cc(N(C)C(=O)C(C)C)c2)cc1 [Compound 62, 5-(Isobutyryl-methyl-amino)-4′-methyl-biphenyl-3-carboxylic acid (pyrazin-2-ylmethyl)-amide]
5.2 | COCC(C)NC(=O)c1cc(NC(=O)c2ccc(C)s2)cc(-c2ccc(C)cc2)c1 (stereo not shown) [Compound 2, 5-Methyl-thiophene-2-carboxylic acid [5-(2-methoxy-1-methyl-ethylcarbamoyl)-4′-methyl-biphenyl-3-yl]-amide]
5.87 | COCC(C)NC(=O)c1cc(NC(=O)c2cscc2OC)cc(-c2ccc(C)cc2)c1 (stereo not shown) [Compound 17, 4-Methoxy-thiophene-3-carboxylic acid [5-(2-methoxy-1-methyl-ethylcarbamoyl)-4′-methyl-biphenyl-3-yl]-amide]
6.86 | CCN(C(=O)C1CCOCC1)c1cc(C(=O)NC(C)c2cnccn2)cc(-c2ccc(C)cc2)c1 (stereo not shown) [Compound 41, Tetrahydro-pyran-4-carboxylic acid ethyl-[4′-methyl-5-(1-pyrazin-2-yl-ethylcarbamoyl)-biphenyl-3-yl]-amide]
5.4 | COCC(C)NC(=O)c1cc(NC(=O)c2cc(C)on2)cc(-c2ccc(C)cc2)c1 (stereo not shown) [Compound 16, 5-Methyl-isoxazole-3-carboxylic acid [5-(2-methoxy-1-methyl-ethylcarbamoyl)-4′-methyl-biphenyl-3-yl]-amide]

The remaining lines, values behind:

SMILES | P2X3 (pIC50 values for the P2X3 receptor)
CC(NC(=O)c1cc(-c2ccc(Cl)cc2)cc(N(C)C(=O)N(C)C)c1)c1cnccn1 (stereo not shown) [Compound 57, 4′-Chloro-5-(trimethyl-ureido)-biphenyl-3-carboxylic acid (1-pyrazin-2-yl-ethyl)-amide] | 6.26
CC(C)C(=O)N(C)c1cc(C(=O)NC(C)c2cnccn2)cc(-c2ccc(Cl)cn2)c1 (stereo not shown) [Compound 67, 3-(5-Chloro-pyridin-2-yl)-5-(isobutyryl-methyl-amino)-N-(1-pyrazin-2-yl-ethyl)-benzamide] | 7.75
CC(NC(=O)c1cc(-c2ccc(Cl)cc2)cc(N(C)C(=O)N2CCOCC2)c1)c1cnccn1 (stereo not shown) [Compound 44, Morpholine-4-carboxylic acid [4′-chloro-5-(1-pyrazin-2-yl-ethylcarbamoyl)-biphenyl-3-yl]-methyl-amide] | 5.17
COCC(C)NC(=O)c1cc(NC(=O)c2ccc(C(F)(F)F)cc2Cl)cc(-c2ccc(C)cc2)c1 (stereo not shown) [Compound 10, 5-(2-Chloro-4-trifluoromethyl-benzoylamino)-4′-methyl-biphenyl-3-carboxylic acid (2-methoxy-1-methyl-ethyl)-amide] | 5.87
Cc1ccc(-c2cc(C(=O)NCc3cnccn3)cc(N(C)C(=O)C(C)C)c2)c(Cl)c1 [Compound 56, 2′-Chloro-5-(isobutyryl-methyl-amino)-4′-methyl-biphenyl-3-carboxylic acid (pyrazin-2-ylmethyl)-amide] | 5.6
CCN(C(=O)COC)c1cc(C(=O)NC(C)c2cnccn2)cc(-c2ccc(C)cc2)c1 (stereo not shown) [Compound 23, 5-[Ethyl-(2-methoxy-acetyl)-amino]-4′-methyl-biphenyl-3-carboxylic acid (1-pyrazin-2-yl-ethyl)-amide] | 6.5

same assay, conditions: CHO-K1 cells transfected with cloned rat P2X3; agonist α,β-meATP 1 μM; Fluo-3 AM calcium fluorescence; read-out: P2X3 (pIC50 values for the P2X3 receptor) (converted)

IC50 [µM] | SMILES
4.47 | CCN(C(=O)c1cnccn1)c1cc(C(=O)NC(C)c2cnccn2)cc(-c2ccc(C)cc2)c1 (stereo not shown) [Compound 27, Pyrazine-2-carboxylic acid ethyl-[4′-methyl-5-(1-pyrazin-2-yl-ethylcarbamoyl)-biphenyl-3-yl]-amide]
